According to patent US8697683B2, “Azetidinyl diamides as monoacylglycerol lipase inhibitors” (Janssen Pharmaceutica, NV, priority 2009, dated 2014):
Substitutions are numbered along the chain they refer to. Read-outs that look alike come from different tables or passages of the source. Each block holds one molecule with its values, some of them ahead of it.

Tests used:
[1] = molecular target: T1, purified wild type MGL (wt-MGLL 6H-11-313) (Homo sapiens, UniProt Q99685)
T1 sequence (Q99685 1-303): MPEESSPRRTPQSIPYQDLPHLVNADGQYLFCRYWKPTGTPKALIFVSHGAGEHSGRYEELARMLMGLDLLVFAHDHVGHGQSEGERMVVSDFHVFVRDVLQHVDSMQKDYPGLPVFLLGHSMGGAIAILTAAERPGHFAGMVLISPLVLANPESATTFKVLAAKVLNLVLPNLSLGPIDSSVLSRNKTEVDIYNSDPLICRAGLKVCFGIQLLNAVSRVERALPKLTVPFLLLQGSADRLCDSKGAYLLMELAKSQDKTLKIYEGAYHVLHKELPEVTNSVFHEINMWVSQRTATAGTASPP

mutant MGL = molecular target: T2, mutant MGL (Homo sapiens, UniProt Q99685, L169S/L176S); assay: MGL ThermoFluor Assay-Mutant
T2 sequence (Q99685 1-303 L169S/L176S): T1 sequence (Q99685 1-303) with L169S, L176S
Experimental: The ThermoFluor (TF) assay is a 384-well plate-based binding assay that measures thermal stability of proteins^1,2. […] TF dye used in all experiments was 1,8-ANS (Invitrogen: A-47). Final TF assay conditions used for MGL studies were 0.07 mg/ml of mutant MGL, 100 μM ANS, 200 mM NaCl, 0.001% Tween-20 in 50 mM PIPES (pH=7.0).
Screening compound plates contained 100% DMSO compound solutions at a single concentration. […] Columns 12 and 24 were used as DMSO reference and contained no compound. […] Following compound dispension, protein and dye solutions were added to achieve the final assay volume of 3 μL.
Bar-coded assay plates were robotically loaded onto a thermostatically controlled PCR-type thermal block and then heated from 40 to 90° C. degrees at a ramp-rate of 1° C./min for all experiments. Fluorescence was measured by continuous illumination with UV light (Hamamatsu LC6), supplied via fiber optics and filtered through a band-pass filter (380-400 nm; >60D cutoff). Fluorescence emission of the entire 384-well plate was detected by measuring light intensity using a CCD camera (Sensys, Roper Scientific) filtered to detect 500±25 nm, resulting in simultaneous and independent readings of all 384 wells. A single image with 20-sec exposure time was collected at each temperature, and the sum of the pixel intensity in a given area of the assay plate was recorded vs temperature and fit to standard equations to yield the Tm^1. • 1.
For some experiments, quantitative NMR spectroscopy (qNMR) was used to measure concentration of the initial 100% DMSO compound solutions and, using the same fitting method, qKd values were determined

MGL = molecular target: T3, MGL (Rattus norvegicus, UniProt Q8R431); assay: 2-AG Accumulation Assay (rat brain homogenate); format: biochemical; conditions: compound 1 μM, percent of vehicle 2-AG accumulation
T3 construct: one g rat brain was homogenized
T3 sequence (Q8R431 1-303): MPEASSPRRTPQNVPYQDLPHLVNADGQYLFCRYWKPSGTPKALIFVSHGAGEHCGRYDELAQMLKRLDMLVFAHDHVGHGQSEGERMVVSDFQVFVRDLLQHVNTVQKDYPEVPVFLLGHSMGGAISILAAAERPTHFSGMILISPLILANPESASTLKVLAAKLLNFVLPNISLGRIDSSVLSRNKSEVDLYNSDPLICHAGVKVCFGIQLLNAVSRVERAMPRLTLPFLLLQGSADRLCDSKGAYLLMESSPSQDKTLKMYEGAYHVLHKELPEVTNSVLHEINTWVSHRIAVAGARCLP

[2] = read-out: MGL wild type inh IC50, 4MU-B substrate 10 μM, 37° C.
[3] = read-out: MGL mutant ThermoFluor Kd, ThermoFluor thermal stability binding assay
[4] = read-out: MGL wild type inh IC50, substrate 4MU-B 10 μM, 37° C.
[5] = read-out: MGL mutant ThermoFluor qKd (μM) (using qNMR conc.), ThermoFluor, compound concentration measured by qNMR
[6] = read-out: MGL wild type inh IC50, substrate 4MU-B 10 μM, enzyme 5 nM, 37° C.
[7] = read-out: MGL mutant ThermoFluor qKd (μM) (using qNMR conc.), compound concentration measured by quantitative NMR (qNMR)
[8] = read-out: MGL mutant ThermoFluor Kd, 0.07 mg/ml, fit of concentration-response of Tm

IC50 [1, 2]: 2680 nM | Kd (mutant MGL; [3]): 4.71 µM
SMILES: O=C(c1ccccc1)N1CCN(C2CN(C(=O)c3ccc(Oc4cccc(F)n4)cc3)C2)CC1 [Cpd 522]

IC50 [1, 4]: 4370 nM | Kd (mutant MGL; [3]): 1.67 µM
SMILES: O=C(c1ccccc1)N1CC(N2CCN(C(=O)c3cc4cc(Cl)ccc4o3)CC2)C1 [Cpd 524]

Kd (mutant MGL; [3]): 10 µM
SMILES: COc1cncc(Oc2ccc(C(=O)N3CC(N4CCN(C(=O)c5ccccc5)CC4)C3)cc2)c1 [Cpd 533]

IC50 [1, 4]: 146 nM
SMILES: O=C(c1ccccc1)N1CCN(C2CN(C(=O)c3ccc4c(c3)c(F)cn4-c3ccccc3)C2)CC1 [Cpd 589]

IC50 [1, 4]: 281 nM | Kd (mutant MGL; [5]): 0.037 µM
SMILES: O=C(c1ccccc1)N1CCN(C2CN(C(=O)c3ccc4c(ccn4-c4ccccc4)c3F)C2)CC1 [Cpd 632]

IC50 [1, 6]: 342 nM | Kd (mutant MGL; [7]): 0.283 µM
SMILES: Cc1sc(C(=O)N2CC(N3CCN(C(=O)c4nccs4)CC3)C2)cc1Br [Cpd 745]

IC50 [1, 4]: 632 nM | Kd (mutant MGL; [5]): 1 µM
SMILES: Cc1c(C(=O)N2CCN(C3CN(C(=O)c4nccs4)C3)CC2)n(C)c2ccc(Cl)cc12 [Cpd 762]

IC50 [1, 4]: 1870 nM | Kd (mutant MGL; [3]): 2.13 µM
SMILES: O=C(c1ccc(Oc2cccc(Cl)c2)nc1)N1CC(N2CCN(C(=O)c3cscn3)CC2)C1 [Cpd 803]

IC50 [1, 2]: 2000 nM | Kd (mutant MGL; [8]): 6.41 µM
SMILES: O=C(c1nccs1)N1CCN(C2CN(C(=O)c3cccc4c3CN(c3ccccc3)CC4)C2)CC1 [Cpd 805]

IC50 [1, 6]: 2190 nM | Kd (mutant MGL; [8]): 0.644 µM
SMILES: O=C(c1cc2cc(Br)ccc2o1)N1CC(N2CCN(C(=O)c3nccs3)CC2)C1 [Cpd 812]

IC50 [1, 6]: 8080 nM | Kd (mutant MGL; [5]): 1.98 µM
SMILES: Cc1cc2nc(C(=O)N3CC(N4CCN(C(=O)c5nccs5)CC4)C3)cn2cc1Br [Cpd 852]

IC50 [1, 2]: 162 nM | Kd (mutant MGL; [3]): 2 µM
SMILES: O=C(c1ccc(SCc2cccc(C(F)(F)F)c2)cc1)N1CC(N2CCN(C(=O)c3cscn3)CC2)C1 [Cpd 975]

IC50 [1, 2]: 2500 nM | Kd (mutant MGL; [5]): 1.43 µM
SMILES: O=C(c1ccc(OCc2cccc(Br)n2)cc1)N1CC(N2CCN(C(=O)C(F)(F)F)CC2)C1 [Cpd 984]

IC50 [1, 2]: 460 nM | Kd (mutant MGL; [7]): 0.638 µM
SMILES: Cn1nccc1-c1ccc2cc(C(=O)N3CC(N4CCN(C(=O)c5nccs5)CC4)C3)[nH]c2c1 [Cpd 1241]

IC50 [1, 4]: 638 nM | Kd (mutant MGL; [3]): 2 µM
SMILES: COc1ccc(-c2cccc(C(=O)N3CC(N4CCN(C(=O)c5cscn5)CC4)C3)c2)cc1 [Cpd 1250]

Rat Brain 2AG % VehCntrl (%) @1 μM (MGL): 147% | IC50 [1, 2]: 769 nM | Kd (mutant MGL; [8]): 0.048 µM
SMILES: O=C(c1nccs1)N1CCN(C2CN(C(=O)c3cccc4nc(-c5ccccc5)[nH]c34)C2)CC1 [Cpd 1255]

IC50 [1, 4]: 1120 nM | Kd (mutant MGL; [5]): 0.741 µM
SMILES: O=C(c1nccs1)N1CCN(C2CN(C(=O)c3nn(-c4ccc(Cl)cc4Cl)c4c3CCCC4)C2)CC1 [Cpd 1267]

IC50 [1, 2]: 5110 nM | Kd (mutant MGL; [7]): 7.12 µM
SMILES: O=C(c1nc2cc(-c3ccc(OC(F)(F)F)cc3)ccc2[nH]1)N1CC(N2CCN(C(=O)c3nccs3)CC2)C1 [Cpd 1303]

IC50 [1, 6]: 8780 nM | Kd (mutant MGL; [3]): 4.21 µM
SMILES: O=C(c1ccc(-c2ccc(Cl)cc2)[nH]1)N1CC(N2CCN(C(=O)c3nccs3)CC2)C1 [Cpd 1307]

IC50 [1, 4]: 9360 nM | Kd (mutant MGL; [5]): 6.54 µM
SMILES: O=C(c1ccc[nH]1)N1CCN(C2CN(C(=O)c3nn(-c4ccc(Cl)cc4Cl)c4c3CCCC4)C2)CC1 [Cpd 1309]

Rat Brain 2AG % VehCntrl (%) @1 μM (MGL): 1475%
SMILES: O=C(c1ccc2c(ccn2-c2cccc(C(F)(F)F)c2)c1)N1CC(N2CCN(C(=O)c3cscn3)CC2)C1 [Cpd 1408, 5-({3-[4-(1,3-Thiazol-4-ylcarbonyl)piperazin-1-yl]azetidin-1-yl}carbonyl)-1-[3-(trifluoromethyl)phenyl]-1H-indole]

IC50 [1, 6]: > 16700 nM | Kd (mutant MGL; [7]): 5.42 µM
SMILES: O=C(c1cn2cc(Cl)cc(Br)c2n1)N1CC(N2CCN(C(=O)c3nccs3)CC2)C1 [Cpd 1452]

IC50 [1, 6]: > 16700 nM | Kd (mutant MGL; [8]): > 31.2 µM
SMILES: O=C(c1nccs1)N1CCN(C2CN(C(=O)c3c[nH]nc3-c3ccccc3)C2)CC1 [Cpd 1475]

IC50 [1, 6]: > 16700 nM | Kd (mutant MGL; [8]): 18.8 µM
SMILES: O=C(c1ccccc1)N1CCN(C2CN(C(=O)c3cc4cc(Br)ccc4o3)C2)CC1 [Cpd 1492]

IC50 [1, 6]: > 16700 nM
SMILES: O=C(c1ccc(-c2ccccc2)cc1)N1CC(N2CCN(C(=O)c3ccccc3)CC23CC3)C1 [Cpd 1499]
